This note sets out measurements from the OligoGym collection.

Several values for one entry are separate records, joined by “and”; a condition that tells them apart may be missing. Identical values can stand only once. After the bases stand the sugars from the 5' end (letter, count) and the backbone: PS all phosphorothioate, else s phosphorothioate and o phosphodiester by linkage. Methylation of C is not given here. e = 2'-O-(2-methoxyethyl) (MOE); k = constrained ethyl (cEt); d = 2'-deoxy (DNA)

The target of the data set is IRF5. The conditions noted are these: ASO.

“TATTTCTGCTCCAGGT (sugars kkdddddddddkekek, PS)”: the target mRNA inhibition (KARPAS-229, 4 µM) stood at 5%. Still for that read-out and setting: the figure for “TCACCACTGTGTACCC (sugars k3 d9 k3 e1, PS)” is 21%.

Turning to “TCACCACTGTGTACCC (sugars kkddddddddddkeke, PS)”, under “KARPAS-229, 4 µM”, the target mRNA inhibition is 0%. In turn, “TCACCACTGTGTACCC (sugars kkdddddddddkdkdk, PS)” displayed a target mRNA inhibition (KARPAS-229, 4 µM) of 0%. Turning to TCAGCTTTCTTGTCTA (sugars k3 d10 k3, PS), the target mRNA inhibition (KARPAS-229, 4 µM) was determined as 15%. The same measure, in the same setting: the figure for “TCCAATTTTGCATTCC (sugars k3 d9 k3 e1, PS)” is 7%. The same measure, in the same setting: as for “TCCAATTTTGCATTCC (sugars kddddddddddkekek, PS)”, the figure is 37%; as for “TCCAATTTTGCATTCC (sugars kdddddddddkekeke, PS)”, 6%.

As to “TCCAATTTTGCATTCC (sugars kekdddddddddeekk, PS)”, the target mRNA inhibition runs as follows: (KARPAS-229, 0.44444 µM) 42%; (KARPAS-229, 1.33333 µM) 68%; (KARPAS-229, 4 µM) 78% and 76%; (KARPAS-229, 12 µM) 82%. In the case of “TCTGATATGATACCTA (sugars k3 d2 k1 d7 k3, PS)”, the target mRNA inhibition was 4% (A-431, 0.00412 µM); 8% (A-431, 0.01225 µM); 36% (A-431, 0.03704 µM); 54% (A-431, 0.11111 µM); 69% (A-431, 0.33333 µM); 74% (A-431, 1 µM). Where the note is “KARPAS-229, 4 µM”, “TCTGGCCCTTTTGGAA (sugars kdddddddddkekeke, PS)” came in with a target mRNA inhibition of 0%.

For the setting “KARPAS-229, 4 µM”, “TCTTGACCTCCCGCTG (sugars kkddddddddkekekk, PS)” displayed a target mRNA inhibition of 19%. On the same count and under the same terms, the figure for TCTTGTCTAGTGTCAT (sugars k3 d10 k3, PS) is 0%; for “TGAGTCATGGAGCTGAG (sugars kdddddddddkekeked, PS)” it is 0%; for “TGAGTCATGGGCTGAG (sugars kkdddddddddkekek, PS)” it is 0%. Same read-out and setting: the figure for “TGAGTCATGGGCTGAG (sugars kkddddddddkekekk, PS)” is 0%; for “TGAGTCTCAAACCAGG (sugars k2 d8 e4 k2, PS)” it is 0%. Under “KARPAS-229, 4 µM”, “TGAGTCTCAAACCAGG (sugars kkdddddddddkdkdk, PS)” gave a target mRNA inhibition of 0%. Regarding TGATTCCAATTTTGCA (sugars k3 d10 k3, PS), the target mRNA inhibition (KARPAS-229, 4 µM) was 17%. Same read-out and setting: as for “TGCAACATCCATCAAT (sugars k3 d10 k2 d1, PS)”, the figure is 0%; as for “TGCACTGACACAGGCG (sugars k2 d8 e4 k2, PS)”, 0%. On the same count and under the same terms, the figure for “TGCACTGACACAGGCG (sugars kkddddddddkekekk, PS)” is 0%; for “TGTCTAGTGTCATGGA (sugars k2 d8 e4 k2, PS)” it is 54%; for TTAAGGGCACAGCGCA (sugars k3 d10 k3, PS) it is 0%.

Regarding “TTATCTCCGTCCTGGC (sugars kkkddddddddkekek, PS)”, where the note is “KARPAS-229, 4 µM”, the target mRNA inhibition was 0%. The same measure, in the same setting: as for “TTATTTCTGCTCCAGG (sugars k3 d9 k3 e1, PS)”, the figure is 28%; as for “TTATTTCTGCTCCAGG (sugars kkddddddddddkeke, PS)”, 26%. Still for that read-out and setting: as for “TTATTTCTGCTCCAGG (sugars kkddddddddkekekk, PS)”, the figure is 0%; as for “TTATTTCTGCTCCAGG (sugars kkkddddddddkekek, PS)”, 23%. On the same count and under the same terms, as for “TTCTGCAGGGAGTCAG (sugars kddddddddddkekek, PS)”, the figure is 4%; as for “TTCTGCAGGGAGTCAG (sugars kdddddddddkekeke, PS)”, 0%. Turning to “TTCTTGGACTCTCAAG (sugars kkddddddddkekekk, PS)”, under “KARPAS-229, 4 µM”, the target mRNA inhibition was found to be 0%. For the setting “KARPAS-229, 4 µM”, TTCTTGTCTAGTGTCA (sugars k3 d10 k3, PS) gave a target mRNA inhibition of 49%. Still for that read-out and setting: as for TTGAATTTTGTGACTG (sugars k3 d10 k3, PS), the figure is 45%; as for TTGCCTTCTGCAGGGA (sugars k3 d10 k3, PS), 0%. For TTGTCTAGTGTCATGG (sugars k3 d10 k3, PS), the target mRNA inhibition (KARPAS-229, 0.44444 µM) amounted to 37%; the target mRNA inhibition (KARPAS-229, 4 µM) is 60% and 70%; the target mRNA inhibition (KARPAS-229, 12 µM) worked out at 84%. For the sequence “TTGTCTAGTGTCATGG (sugars kekdddddddddeekk, PS)”, the target mRNA inhibition (KARPAS-229, 4 µM) worked out at 55%.

“TTGTCTAGTGTCATGG (sugars kkddddddddddkeke, PS)” registered a target mRNA inhibition (KARPAS-229, 4 µM) of 38%. On to “TTGTCTAGTGTCATGG (sugars kkkdddddddddkeke, PS)”, for which the target mRNA inhibition (KARPAS-229, 4 µM) came out at 39%. The same measure, in the same setting: as for “TTGTCTAGTGTCATGG (sugars kkkddddddddkdkdk, PS)”, the figure is 36%.

In turn, TTGTGACTGTATTACC (sugars k3 d10 k3, PS) registered a target mRNA inhibition (KARPAS-229, 4 µM) of 56%.
